Laboratory results taken from ChEMBL document CHEMBL1201862, “PubChem BioAssay data set” (2004).
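Interpolation was linear, between the two tested concentrations surrounding the appropriate level; five concentrations were tested over 48 hours in 96-well plates. Here, GI50 denotes the concentration required for 50% inhibition of growth.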 Activity calls are given as the source filed them. Cut-off read from the data, not from the text of the source: active = GI50 up to about 1.1 µM and inactive = higher.

Legend:
Assay in all cases: inhibition of tumour cell growth, NCI panel, 48 h
NCI-H522 = tested on: NCI-H522
OVCAR-4 = tested on: OVCAR-4
CAKI-1 = tested on: CAKI-1
EKVX = tested on: EKVX
UO-31 = tested on: UO-31
KM-20L2 = tested on: KM-20L2
HOP-92 = tested on: HOP-92
SF-295 = tested on: SF-295
M14 = tested on: M14
COLO 205 = tested on: COLO 205
NCI-H23 = tested on: NCI-H23
DLD-1 = tested on: DLD-1
HCT-15 = tested on: HCT-15
U-251 = tested on: U-251
A549 = tested on: A549
UACC-62 = tested on: UACC-62
SNB-19 = tested on: SNB-19
RXF 393 = tested on: RXF 393
HT-29 = tested on: HT-29
K562 = tested on: K562

| Structure (SMILES) | GI50 (NCI-H522) | GI50 (OVCAR-4) | GI50 (CAKI-1) | GI50 (EKVX) | GI50 (UO-31) | GI50 (KM-20L2) | GI50 (HOP-92) | GI50 (SF-295) | GI50 (M14) | GI50 (COLO 205) | GI50 (NCI-H23) | GI50 (DLD-1) | GI50 (HCT-15) [µM] | GI50 (U-251) | GI50 (A549) | GI50 (UACC-62) | GI50 (SNB-19) | GI50 (RXF 393) | GI50 (HT-29) | GI50 (K562) |
| --- | --- | --- | --- | --- | --- | --- | --- | --- | --- | --- | --- | --- | --- | --- | --- | --- | --- | --- | --- | --- |
| C=CC(OCC)(OCC)OCC | > 100 µM (inactive) | > 100 µM (inactive) | > 100 µM (inactive) | > 100 µM (inactive) | > 100 µM (inactive) | > 100 µM (inactive) | > 100 µM (inactive) | > 100 µM (inactive) | > 100 µM (inactive) | > 100 µM (inactive) | > 100 µM (inactive) | 35.2 µM (inactive) | 53.1 | > 100 µM (inactive) | > 100 µM (inactive) | > 100 µM (inactive) | > 100 µM (inactive) | > 100 µM (inactive) | > 100 µM (inactive) | > 100 µM (inactive) |
| CC1CC2C3CC(F)C4=CC(=O)C=CC4(C)C3(F)C(O)CC2(C)C1(O)C(=O)COC(=O)C(C)(C)C (centres undefined) | 71 µM (inactive) | 27.4 µM (inactive) | > 100 µM (inactive) | > 100 µM (inactive) | > 100 µM (inactive) | > 100 µM (inactive) | > 100 µM (inactive) | 61.7 µM (inactive) | > 100 µM (inactive) | > 100 µM (inactive) | > 100 µM (inactive) | > 100 µM (inactive) | > 100 | > 100 µM (inactive) | 54.6 µM (inactive) | > 100 µM (inactive) | 64.3 µM (inactive) | 18.7 µM (inactive) | > 100 µM (inactive) | > 100 µM (inactive) |
| CC(=O)N/C(=C\c1ccc(/C=C(\NC(C)=O)C2=NC3C(=O)c4ccccc4C(=O)C3N2)cc1)C1=NC2C(=O)c3ccccc3C(=O)C2N1 (centres undefined) | 7.69 µM (inactive) | > 100 µM (inactive) | 3.27 µM (inactive) | 15.6 µM (inactive) | 2.97 µM (inactive) | 39.7 µM (inactive) | 30.8 µM (inactive) | 68.2 µM (inactive) | 49.8 µM (inactive) | 93.1 µM (inactive) | 26.7 µM (inactive) | 7.71 µM (inactive) | 9.14 | 9.98 µM (inactive) | 2.34 µM (inactive) | 25.8 µM (inactive) | 19 µM (inactive) | 13.2 µM (inactive) | > 100 µM (inactive) | 19.3 µM (inactive) |
| CCC/C=C/C=C\C(=O)O[C@@H]1[C@@H](C)[C@]2(O)[C@@H]3C=C(C)C(=O)[C@H]3CC(COC(C)=O)=C[C@H]2[C@@H]2C(C)(C)[C@]12OC(C)=O | 27.7 µM (inactive) | 30.2 µM (inactive) | 26.1 µM (inactive) | 49.9 µM (inactive) | 46.5 µM (inactive) | 44.4 µM (inactive) | 43.8 µM (inactive) | 6.64 µM (inactive) | – | 1.74 µM (inactive) | 33.7 µM (inactive) | 16.7 µM (inactive) | 28.6 | 17.6 µM (inactive) | 4.59 µM (inactive) | 35.2 µM (inactive) | 54.1 µM (inactive) | 47.5 µM (inactive) | 40 µM (inactive) | 2.49 µM (inactive) |
